# According to article PMC9228535, “Antistaphylococcal Activities and ADME-Related Properties of Chlorinated Arylcarbamoylnaphthalenylcarbamates” (Pharmaceuticals, 2022):
# Where two headings read alike, the source gives them in different places.
# Legend:
# MRSA 63718 = assay: MBC, agar aliquot subculture method; assay type: cell-based; conditions: Staphylococcus aureus, MRSA
# Method: (§1) All the investigated compounds were screened for in vitro antibacterial activity against the reference and quality control strain Staphylococcus aureus ATCC 29213 and clinical isolates of methicillin-resistant S. aureus (MRSA) 63718, SA 630, and SA 3202 [14]. Activities are expressed as the minimum inhibitory concentrations (MICs), see Table 2. In addition to the MICs, the minimum bactericidal concentrations (MBCs) were also determined.
# (§2) For the S. aureus and MRSA isolates, the agar aliquot subculture method was used as a test for bactericidal agents. After the MIC value determination, the inoculum was transferred to Mueller–Hinton (Oxoid) agar using a multipoint inoculator. The plates were incubated in a thermostat at 37 °C for 24 h. The lowest concentration of test compound at which ≤5 colonies were obtained was then evaluated as MBC, corresponding to a 99.9% decrease in CFU relative to the original inoculum.
# MRSA SA 3202 = assay: MBC, agar aliquot subculture method; assay type: cell-based; conditions: Staphylococcus aureus
# Method: as §1, §2
# MRSA SA 630 = assay: MBC, agar aliquot subculture method; assay type: cell-based; conditions: Staphylococcus aureus
# Method: as §1, §2
# [1] = test system: Staphylococcus aureus ATCC 29213; assay: MBC, agar aliquot subculture method; assay type: cell-based; conditions: ATCC29213
# Method: as §1, §2
# [2] = Stability of ethyl carbamate by HPLC (decomposition rate, half-life); assay type: physicochemical; conditions: buffer, read-out: half-life τ0,5 (converted)
# Method: The minimum inhibitory concentrations (MICs) were evaluated by the microtitration broth method according to the CLSI [64, 65] with some modifications. The compounds were dissolved in DMSO (Sigma, St. Louis, MO, USA) to get a concentration […] and diluted in a microtitration plate in an appropriate medium, namely, Cation Adjusted Mueller–Hinton (CaMH, Oxoid, Basingstoke, UK) for staphylococci (S. aureus ATCC 29213, clinical isolates of MRSA 63718, SA 630, and SA 3202) and brain heart infusion (BHI, Oxoid) for E. faecalis ATCC 29212, to reach the final concentration of 256-0.125 µg/mL. The plate was inoculated by the tested microorganisms. The final concentration of bacterial cells was 10^5 for bacteria. Ampicillin (Sigma) was used as reference drugs. A drug-free control and a sterility control were included. The plates were incubated for 24 h at 37 °C for staphylococci and E. faecalis ATCC 29212 (stability evaluation of the carbamates, see Supplementary materials, Table S1). […] The experiments were repeated three times. […]
# evaluate of ethyl carbamate stability. A chromatographic column XTerra® Phenyl 3.5 μm, 100 × 4.6 mm (Waters Corp., Milford, MA, USA) was used. The HPLC separation process was monitored by ChemStation for LC 3D systems (Agilent Technologies). Isocratic elution by a mixture of acetonitrile (HPLC grade, 60.0%) and phosphate buffer, pH 2.5 (40%) as a mobile phase was used. The total flow of the column was 1.0 mL/min, injection 20 μL, the time of analysis was 8 min, column temperature 40 °C, and sample temperature 10 °C. The detection wavelength of 254 nm was chosen. The retention time (tR) of carbamate 2 was 4.92 ± 0.05 min and of the pattern anilide 3.12 ± 0.05 min.
# Table S1. Ethyl carbamate 2 decomposition rate and half-life values.
compound,measurement,setting,value
"CCNC(=O)Oc1c(C(=O)Nc2cc(Cl)c(Cl)cc2Cl)ccc2ccccc12 [Compound 2, 2-[N-(2,4,5-Trichlorophenyl)carbamoyl]naphthalen-1-yl ethyl carbamate]",MBC,MRSA 63718,0.286 µM
same,MBC,MRSA SA 3202,0.073 µM
same,MBC,MRSA SA 630,0.144 µM
same,MBC,[1],0.018 µM
same,half-life,[2]; pH 6,50.1 days
same,half-life,[2]; pH 7,23.2 days
same,half-life,[2]; pH 8,9.12 days
